In a melting point compilation (Tetko et al.) one finds melting point data, which are given here for 121 compounds.

Molecules are shown by their SMILES.

For orientation: melting point means the temperature of the solid-liquid transition.

Compound `CC(C)c1noc(-c2ccnc(Cl)c2)n1` gave a melting point of 35 to 37 °C.
With `NC(Cn1cccn1)=NO` the figure was 80 to 82 °C; with `O=C(O)c1ccc(-n2cc(Br)cn2)cc1`, 273 to 275 °C; with `COC(=O)c1ccc2c(c1)CCN2`, 74 to 76 °C.
With `CCc1nc(N)no1` the figure was 39 to 41 °C.
The value for `COc1ccc(NC(=O)NCCC(=O)O)cc1` was 174 to 176 °C.
The compound `CC(C)(C(=O)O)c1ccc2c(c1)OCCO2` gave a melting point of 125 to 127 °C.
The value for `Oc1ccc(I)nc1` was 185 to 187 °C; that for `Cc1nc(-c2ccc(O)cc2)no1` was 186 to 188 °C; that for `Cc1nc2ccc(N)cc2o1` was 129 to 131 °C.
Regarding `Cn1ccnc1-c1cc(N)on1`, the melting point fell in the range of 178 to 180 °C.
The value for `Cc1c(C(=O)O)oc2c(Br)cc(Cl)cc12` was 279 to 281 °C; that for `Cc1nc(S(=O)(=O)N2CCC(C(=O)O)CC2)cn1C` was 262 to 264 °C.
In turn, `Cn1cc(C(N)=S)cn1` yielded a melting point of 189 to 191 °C.
The value for `CC(=O)N(c1ccccc1)c1nc(C=O)cs1` was 150 to 152 °C.
Compound `Cc1ccc(NC(=O)C(C)C)cc1N` came in with a melting point of 160 to 162 °C.
The value for `O=C(c1ccsc1)N1CCCNCC1` was 98 to 100 °C; that for `CCOCc1cc(C(=O)O)ccc1OC` was 142 to 146 °C.
In turn, `CCOC(=O)/C(C#N)=C/Nc1ccc(F)cc1F` returned a melting point of 142 to 144 °C.
The value for `CCC1(CC)NC(=O)N(CC(=O)O)C1=O` was 169 to 173 °C; that for `Cn1cc(-c2cccc(N)n2)cn1` was 132 to 134 °C; that for `Cc1cn2cc(Br)cc(C)c2n1` was 109 to 111 °C.
The compound `CC(C)(C)NS(=O)(=O)c1cccc(C(=O)O)c1` registered a melting point of 145 to 147 °C.
The value for `c1ccc2nn(C3CCNC3)cc2c1` (stereo unspecified) was 79 to 81 °C.
Regarding `O=C(O)c1cc(Cl)ccc1NS(=O)(=O)c1ccccc1`, the melting point was 184 to 186 °C.
The value for `O=C(O)C=Cc1ccc(SC(F)(F)F)cc1` was 212 to 214 °C.
With `Nc1cc(=O)[nH]c(=O)n1Cc1ccc(Cl)cc1` the figure was 279 to 281 °C; with `CC(NC(=S)NN)C1CC1` (stereo unspecified), 68 to 70 °C; with `Cc1cc(C(=O)O)nc2nc(O)[nH]c(=O)c12`, 266 to 268 °C.
The value for `O=C(O)CC1(CO)CC1` was 68 to 70 °C; that for `NC(=O)c1ccsc1NC(=O)CCl` was 148 to 150 °C; that for `O=C1Nc2ccc(S(=O)(=O)Cl)cc2C1(Cl)Cl` was 134 to 136 °C.
In turn, `Cc1nc(C)c2c(C)c(C(=O)O)sc2n1` displayed a melting point of 347 to 349 °C.
The value for `CC(Cn1ccnc1)NC(=O)C1(N)CCCC1` (stereo unspecified) was 239 to 241 °C; that for `O=C(CCCl)N(c1ccccc1)C1C=CS(=O)(=O)C1` (stereo unspecified) was 122 to 124 °C; that for `O=C(O)c1cc(-c2ccccc2F)nc2onc(C3CC3)c12` was 182 to 184 °C.
With `O=C(c1ccccc1)c1nccs1` the figure was 40 to 42 °C; with `Cc1nnc(S)n1Cc1ccccc1`, 164 to 166 °C; with `CC1(C)OC(=O)C(=Cc2ccc(I)o2)C(=O)O1`, 124 to 126 °C.
The value for `O=C(O)c1ccc(-n2cccn2)nc1` was 267 to 269 °C; that for `CC(C)(C)OC(=O)N1CC=C(c2ccc(O)cc2)CC1` was 134 to 136 °C; that for `Nc1nc2ncccn2n1` was 185 to 187 °C.
With `Cc1nn2c(S)nnc2nc1O`, the melting point was in the range of 305 to 307 °C.
With `COC(=O)c1sc(N)nc1C1CC1` the figure was 184 to 186 °C; with `O=C(NC1(c2nn[nH]n2)CCCC1)c1ccccc1`, 228 to 230 °C; with `Cc1noc2nc(-c3ccccc3Cl)cc(C(=O)O)c12`, 248 to 250 °C.
The value for `Nc1ccc(OCc2ccccc2)nc1` was 42 to 44 °C; that for `Cc1cccnc1NC(=O)C1CCCNC1` (stereo unspecified) was 123 to 125 °C; that for `CNS(=O)(=O)c1ccc(NCCOC)c(N)c1` was 111 to 113 °C.
The value for `O=C(c1cccnc1)c1csc2ccccc12` was 109 to 111 °C; that for `CCCS(=O)(=O)Nc1ccccc1C(=O)O` was 150 to 152 °C; that for `NCc1ccc(N2CCN(c3ccccn3)CC2)nc1` was 107 to 109 °C.
As for `Nn1c(S)nnc1Cc1ccccc1`, the melting point fell in the range of 179 to 181 °C.
As to `NC(=O)C1CNc2ccccc2C1` (stereo unspecified), the melting point lay in the range of 121 to 123 °C.
On to `CC(Cl)c1cn(-c2ccccc2)nn1` (stereo unspecified), for which the melting point was 69 to 71 °C.
With `O=C(O)c1ccc(Sc2ccc(Cl)cc2)o1` the figure was 161 to 163 °C; with `O=C(N=C=S)c1ccc(Cl)c(Cl)c1`, 49 to 51 °C; with `CC1CC1C(N)=O` (stereo unspecified), 93 to 95 °C.
The value for `NC(=O)c1c(N)sc2c1CCCC2` was 153 to 155 °C; that for `O=C(O)C=Cc1cc(Cl)ccc1OCc1ccc(F)cc1` was 166 to 168 °C.
Consider `Oc1ccccc1CNc1ccc(F)cc1`, for which the melting point was 103 to 105 °C.
The value for `NC(=O)C1CCC(C(=O)O)CC1` (stereo unspecified) was 205 to 207 °C; that for `COCCCn1cnnc1S` was 161 to 163 °C; that for `O=C(O)c1ccc2ncoc2c1` was 242 to 244 °C.
The value for `Cc1ccc(S(N)(=O)=O)cc1C(=O)O` was 175 to 190 °C.
The compound `CS(=O)Cc1cccc(C(=O)O)c1` (stereo unspecified) returned a melting point of 181 to 183 °C.
With `CCNC(=O)COc1ccc(N)cc1` the figure was 95 to 97 °C; with `O=C(O)CCc1ncc(-c2ccccc2Br)o1`, 180 to 182 °C.
The value for `N#CCc1ncc(C(F)(F)F)cc1Cl` was 34 to 36 °C; that for `O=C(CCl)NCc1ccccc1F` was 79 to 81 °C.
The value for `Cc1ccc(-n2c(SCC(=O)NN)nnc2-c2ccccc2)cc1` was 90 to 92 °C; that for `NS(=O)(=O)c1ccccc1S(=O)(=O)Cl` was 179 to 181 °C.
The compound `COc1ccc(F)cc1C(C)N` (stereo unspecified) had a melting point of 74 to 76 °C.
As for `O=[N+]([O-])c1cc(S(=O)(=O)N2CCOCC2)ccc1N1CCOCC1`, the melting point lay in the range of 154 to 156 °C.
The value for `N#Cc1sc(-c2cccc(Cl)c2)cc1N` was 190 to 192 °C; that for `CC(C)(C)NS(=O)(=O)c1ccc(F)c(N)c1` was 99 to 101 °C; that for `O=C(O)C(F)(F)c1c[nH]c(=O)[nH]c1=O` was 188 to 190 °C.
With `Cc1cc(C)c2c(N)c(C(=O)N3CCOCC3)sc2n1` the figure was 147 to 149 °C; with `CC(C)C(NC(=O)Nc1ccccc1)C(=O)O` (stereo unspecified), 140 to 142 °C; with `O=Cc1c(Cl)cccc1N1CCCC1`, 69 to 71 °C.
`ClCc1ccc(-c2nc3cccc(Cl)c3s2)cc1` came in with a melting point of 173 to 175 °C.
The value for `CC(C)(C)OC(=O)N1CCN(S(=O)(=O)C2CNC2)CC1` was 132 to 134 °C.
The value for `O=C(O)c1ccc2c(=O)[nH]c(S)nc2c1` was 379 to 381 °C; that for `CC(C)C(=O)Nc1cccc(N)c1` was 119 to 121 °C.
With `COC(=O)C1COc2ccccc2O1` (stereo unspecified) the figure was 37 to 39 °C.
Take `O=C(O)/C=C/C1=C(Cl)c2ccccc2S1(=O)=O`: the melting point lay within 266 to 268 °C.
In turn, `O=C1CCCc2sccc21` gave a melting point of 38 to 40 °C.
With `CC(O)C(NC(=O)C1CC1C)C(=O)O` (stereo unspecified) the figure was 138 to 140 °C; with `Nc1cc(-c2ccc(Br)cc2)ncn1`, 251 to 253 °C; with `O=Cc1ccc(-c2ccccc2F)o1`, 66 to 68 °C.
The value for `O=C(O)CCSc1ccc2c(c1)OCCO2` was 87 to 89 °C; that for `Nc1cc(Cl)ccc1S(N)(=O)=O` was 142 to 144 °C.
Regarding `O=C(O)Cn1cncn1`, the melting point was 199 to 201 °C.
The value for `COc1ccc(NS(=O)(=O)c2ccc3oc(S)nc3c2)cc1` was 175 to 177 °C; that for `COC(=O)c1nc2ccccc2[nH]1` was 189 to 191 °C.
With `O=Cc1ccc(Oc2cccc([N+](=O)[O-])c2)cc1` the figure was 59 to 61 °C; with `Cc1ccc(Sc2ccc(Cl)cc2N)c(C)c1`, 86 to 88 °C; with `Sc1ncnc2ccccc12`, 293 to 295 °C.
The value for `O=C(Nc1sc2c(c1C(=O)O)CCC2)c1ccco1` was 242 to 244 °C; that for `CC(=O)c1cnn(-c2ccccc2)c1` was 124 to 126 °C; that for `O=C1C=CC(=O)N1CCO` was 59 to 61 °C.
The compound `NNC(=O)c1ccc2c(=O)n3c(nc2c1)CCC3` came in with a melting point of 268 to 270 °C.
With `Sc1nnc(N2CCCC2)s1` the figure was 179 to 181 °C; with `O=C(CC(F)(F)F)c1ccc(Br)cc1`, 73 to 75 °C.
The value for `Cc1cc2n(n1)CC(C(F)(F)F)CN2` (stereo unspecified) was 194 to 196 °C.
The value for `c1ccc2[nH]c(Cc3nc4ccccc4s3)nc2c1` was 194 to 196 °C.
The compound `COc1ccc(C(N)Cc2ccc(F)cc2)cc1` (stereo unspecified) showed a melting point of 47 to 49 °C.
With `COc1ccc(Br)cc1CCC(=O)O` the figure was 116 to 118 °C; with `O=C(O)c1ccc(Cl)c(S(=O)(=O)N(Cc2ccccc2)c2cccc(C(F)(F)F)c2)c1`, 201 to 203 °C; with `CS(=O)(=O)c1ccc(Cl)c(S(N)(=O)=O)c1`, 228 to 230 °C.
Compound `CCOC(=O)c1c(N)sc(-c2ccccc2)c1C` showed a melting point of 94 to 96 °C.
With `O=C1CC2(CCCC2)CN1` the figure was 68 to 70 °C.
`CC(=O)Nc1ccc(N)c(C(F)(F)F)c1` returned a melting point of 118 to 120 °C.
With `Cn1cc(S(=O)(=O)N2CCOCC2)cc1C(=O)O` the figure was 245 to 247 °C; with `COc1ccc(C2(C(=O)O)CCC2)cc1`, 95 to 97 °C; with `O=C(Nc1cccc(Cn2cccnc2=O)c1)OCC(F)(F)F`, 173 to 175 °C.
Regarding `Cc1cc2n(n1)C(=O)CC(=O)N2`, the melting point was in the range of 219 to 221 °C.
With `Cc1cc(=O)n2nc(CCl)sc2n1` the figure was 183 to 185 °C; with `Cc1ccccc1C1CNC(=O)C1` (stereo unspecified), 115 to 117 °C; with `CC(C)CNC(=O)c1cc(N)ccc1Cl`, 109 to 111 °C.
The value for `Cc1ccc(F)c(N2CCCC(Br)C2=O)c1` (stereo unspecified) was 74 to 76 °C.
